Results published in US20130053372A1, “5-HT RECEPTOR MODULATORS” (Cambridge Enterprise Limited, priority 2010, published 2013).

Experiments:
gp5-HT1B [1] = target: T1, gp5-HT1B (Cavia porcellus, UniProt O08892); assay: Guinea-pig iliac artery functional assay at gp5-HT1B (GPI); assay type: cell-based; design: from tissue; host or cells: guinea-pig common iliac artery segments; settings: classified as antagonism, agonism or no effect at 10 μM, against 5-nonyloxytryptamine contraction; monohydrochloride salt
Description: Protocol for Determination of Efficacy at gp5-HT1B Receptors in the Guinea-Pig Iliac Artery. (GPI)
Guinea-pig common iliac artery segments (1.0-1.5 mm long) from Dunkin-Harley guinea-pigs (250 g-500 g) were mounted under normalized tension in oxygenated (95% O2; 5% CO2) Krebs-Henseleit solution (NaCl, 118 mM; KCl, 4.7 mM; MgSO4, 1.2 mM; KH2PO4, 1.2 mM; NaHCO3, 25 mM; CaCl2, 2.5 mM; D-glucose, 11 mM; and with indomethacin, 10 μM). After 30 min equilibration, the vessels were precontracted with 5-HT (10 μM) and tested for endothelial integrity by administration of carbachol (10 μM), endothelium-intact vessels (relaxation ≧90% to carbachol) were used for the experiments. Concentration/contraction curves to cumulative addition of 5-nonyloxytryptamine (5-NOT; a 5-HT1B receptor-selective agonist) were constructed in 25 mM KCl Krebs-Henseleit solution (standard Krebs-Henseleit solution in which the KCl concentration was increased to 25 mM by equimolar substitution of NaCl). Vessels were incubated with putative antagonists for 30 min before construction of a concentration/contraction curve for 5-NOT. Contractile responses were expressed as a percentage of the tone induced by Krebs-Henseleit solution containing 90 mM KCl after substitution of an equivalent amount of NaCl with KCl in standard Krebs-Henseleit solution. Data were analysed using non-linear procedures by fitting to a logistic equation: E=(Rmax.[A]^nH)/EC50^nH+[A]^nH), where E is the contraction induced, [A] the concentration of the agonist, Rmax the maximal increase in tension induced, nH the slope function and EC50 the concentration of producing half the maximal contractile tone. Potency was assessed using the Gaddum equation: […] where [A] is the concentration of the putative antagonist and Ka its affinity constant at the 5-HT1B receptor. Compounds are classified as having antagonism, agonism or no effect at a dose concentration of 10 μM.

gp5-HT1B [2] = target: T1, gp5-HT1B; assay: Guinea-pig frontal cortex membrane binding at gp5-HT1B (GPF); design: from tissue; host or cells: guinea-pig frontal cortex membranes; settings: monohydrochloride salt; for Kd: Kd from IC50 by Cheng & Prusoff, read-out: (GPF) Guinea-Pig Frontal Cortex membrane binding Affinity at gp5-HT1B Kd; for IC50: [3H]GR125743 displacement
Description: Binding Protocol for Determination of Affinity in gp5-HY1B in Guinea-Pig Frontal Cortex Membranes. (GPF)
Guinea-pig frontal cortex membranes were resuspended in a buffer (50 mM Tris-HCl, 4 mM MgCl, 2.5 mM CaCl2, 1 mM EDTA and 120 mM NaCl pH 7.4) to a final concentration of 5-6 μg protein μl^−1. Receptor binding was initiated by the addition of membranes and carried out in a volume of 0.5 ml at 27° C. Non-specific binding was determined by pre-incubation for 15 min with 10 μM SB214461 (N-(3-(2-(dimethylamino)ethoxy)-4-methoxyphenyl)-2′-methyl-4′-(5-methyl-1,2,4-oxadiazol-3-yl)biphenyl-4-carboxamide, Eur. J. Pharmacol. 1997, 331, 169-174). The amount of binding in the presence or absence of a competing ligand was determined by incubation at 27° C. for 60 min with 0.6 nM [N-methyl ^3H] GR125743 (GE Life Science Products). Incubation was terminated by rapid vacuum filtration through GF/B glass fibre filters that had been presoaked in 3% polyethylenimine. Samples were washed 3 times with 1.5 ml ice-cold buffer (50 mM Tris-HCl, pH 7.4) and bound radioactivity determined by liquid scintillation counting after leaving the filters in contact with the scintillation fluid for at least 4 h before counting for 5 min in a liquid scintillation analyzer.
(§1) Specific binding was determined as B—BNS/(BTot—BNS) where B is the binding in the presence of a given competing ligand, BNS is the non-specific binding of radioligand (i.e. the binding in the presence of 10 μM SB214461), and BTot is the amount of binding of radioligand in the absence of a competing ligand. Data for specific binding as a function of the concentration of competing ligand were fitted to a single-site model to obtain a value for IC50. Kd values were derived from IC50 by the Cheng & Prusoff equation (Cheng Y, Prusoff W H (1973). Biochem Pharmacol 22, 3099-3108).

human h5-HT1B receptor = human h5-HT1B receptor (Homo sapiens, UniProt P28222); assay: Binding affinity at human h5-HT1B receptors (HBA); settings: [3H]GR125743 displacement; Kd from IC50 by Cheng & Prusoff; monohydrochloride salt
Description: Binding Protocol for Determination of Binding Affinity at Human […] Receptors (HBA)
Membrane preparations (5 μg in a volume of 100 μl per sample) expressing the human h5-HT1B receptor were preincubated at 27° C. in buffer (50 mM Tris HCl, 10 mM MgCl2 and 1 mM EDTA; pH 7.4) with or without 10 μM SB214461 (N-(3-(2-(dimethylamino)ethoxy)-4-methoxyphenyl)-2′-methyl-4′-(5-methyl-1,2,4-oxadiazol-3-yl)biphenyl-4-carboxamide, Eur. J. Pharmacol. 1997, 331, 169-174) (to determine non-specific binding). Receptor binding was determined by incubation at 27° C. with 3.5 nM [N-methyl-^3H] GR125743 (GE Life Science Products) for 90 min. The incubations were terminated by rapid vacuum filtration through GF/B glass fibre filters that had been presoaked in 3% polyethylenimine. Samples were washed 3 times with 1.5 ml ice-cold buffer (50 mM Tris-HCl, pH 7.4) and bound radioactivity determined by liquid scintillation counting after leaving the filters in contact with the scintillation fluid (4 ml Quicksafe ‘A’, Zinsser, Maidenhead, UK) for at least 4 h before counting for 5 min in a liquid scintillation analyzer.
as §1, with “[…].” for “IC50.”

rat r5-HT1B receptors = target: T2, rat r5-HT1B receptors (Rattus norvegicus, UniProt P28564); assay: Binding affinity at rat r5-HT1B receptors, rat cerebral cortex membrane binding (RBA); settings: value in parentheses; monohydrochloride salt
T2 construct: from tissue
Description: Binding Protocol for Determination of Affinity at rat r5-HT 1B Receptors (RBA)
This binding affinity protocol was performed according to standard conditions disclosed in Eur. J. Pharmacol. 1985, 118, 1-12.

T2 sequence (P28564 whole entry): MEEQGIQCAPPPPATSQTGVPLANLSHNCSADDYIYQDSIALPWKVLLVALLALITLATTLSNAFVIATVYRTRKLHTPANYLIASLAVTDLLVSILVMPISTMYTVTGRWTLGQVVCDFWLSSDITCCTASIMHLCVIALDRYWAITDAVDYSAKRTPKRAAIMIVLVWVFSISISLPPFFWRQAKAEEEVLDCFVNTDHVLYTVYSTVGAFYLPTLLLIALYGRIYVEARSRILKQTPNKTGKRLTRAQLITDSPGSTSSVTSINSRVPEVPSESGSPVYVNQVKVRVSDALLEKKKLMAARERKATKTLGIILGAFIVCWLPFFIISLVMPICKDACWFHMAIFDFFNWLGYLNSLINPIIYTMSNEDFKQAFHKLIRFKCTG
human h5-HT1B receptor, sequence (P28222 whole entry): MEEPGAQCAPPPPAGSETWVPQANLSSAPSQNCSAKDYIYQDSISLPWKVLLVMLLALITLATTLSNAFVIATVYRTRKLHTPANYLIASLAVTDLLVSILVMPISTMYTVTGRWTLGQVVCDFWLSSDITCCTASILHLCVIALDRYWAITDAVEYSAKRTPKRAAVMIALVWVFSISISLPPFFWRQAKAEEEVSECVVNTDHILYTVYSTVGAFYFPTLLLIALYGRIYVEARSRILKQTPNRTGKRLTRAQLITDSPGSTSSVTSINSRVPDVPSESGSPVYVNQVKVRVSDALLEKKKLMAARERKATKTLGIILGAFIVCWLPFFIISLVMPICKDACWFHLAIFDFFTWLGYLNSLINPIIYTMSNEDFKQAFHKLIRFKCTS
T1 sequence (O08892 whole entry): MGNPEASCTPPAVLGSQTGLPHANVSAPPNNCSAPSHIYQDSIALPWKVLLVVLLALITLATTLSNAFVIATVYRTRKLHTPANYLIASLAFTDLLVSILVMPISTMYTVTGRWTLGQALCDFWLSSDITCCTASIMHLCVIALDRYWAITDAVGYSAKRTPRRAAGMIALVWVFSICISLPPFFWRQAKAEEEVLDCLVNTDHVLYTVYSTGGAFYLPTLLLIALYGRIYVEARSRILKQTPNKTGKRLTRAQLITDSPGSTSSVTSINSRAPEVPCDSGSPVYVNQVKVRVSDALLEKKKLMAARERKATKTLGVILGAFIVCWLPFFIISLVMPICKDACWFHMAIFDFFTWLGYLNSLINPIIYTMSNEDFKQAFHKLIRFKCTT

SMILES	(GPI) Guinea-Pig Iliac Artery functional assay at gp5-HT1B (gp5-HT1B [1])	Kd (gp5-HT1B [2]) [nM]	IC50 (gp5-HT1B [2]) [nM]	Kd (human h5-HT1B receptor) [nM]	IC50 (rat r5-HT1B receptors) [nM]
COc1ccc(N2CCCC2=O)cc1N(C)CCN(C)C [13f, 1-(3-((2-(dimethylamino)ethyl)(methyl)amino)-4-methoxyphenyl)pyrrolidin-2-one, reference compound]	No effect				
CN1CCN(c2cc(N3CCCC3=O)cc3ccoc23)CC1 [Example 45, 1-(7-(4-methylpiperazin-1-yl)benzofuran-5-yl)pyrrolidin-2-one]	Antagonist	200	400	4500	
C[C@@H]1CN(c2cc(N3CCCC3=O)cc3c2OCC3)C[C@H](C)N1 [Example 26b, 1-(7-((3S,5R)-3,5-dimethylpiperazin-1-yl)-2,3-dihydrobenzofuran-5-yl)pyrrolidin-2-one]					9600
COc1ccc(N2CCOC2=O)cc1N1C[C@@H](C)N[C@@H](C)C1 [Example 13d, 3-(3-((3R,5S)-3,5-dimethylpiperazin-1-yl)-4-methoxyphenyl)oxazolidin-2-one]	No effect				
CN1CCN(c2cc(N3CCCC3=O)ccc2F)CC1 [Example 30, 1-(4-fluoro-3-(4-methylpiperazin-1-yl)phenyl)pyrollidin-2-one]	Antagonist	2000	4000		
CN1CCN(c2cc(N3CCOC3=O)cc3ccoc23)CC1 [Example 47a, 3-(7-(4-methylpiperazin-1-yl)benzofuran-5-yl)oxazolidin-2-one]	Antagonist	225	450	13500	
CN1CCN(c2cc(N3CCNS3(=O)=O)cc3ccoc23)CC1 [Example 50a, 2-(7-(4-methylpiperazin-1-yl)benzofuran-5-yl)-1,1-dioxo-1,2,5-thiadiazolidine]	Antagonist	700	1400		860
COc1ccc(N2CCCS2(=O)=O)cc1N1CCCN(C)CC1 [Example 18b, 2-(4-methoxy-3-(4-methyl-1,4-diazepan-1-yl)phenyl)-1,1-dioxoisothiazolidine]					12000
COc1ccc(N2CCCC2=O)cc1N1CCN(C)CC1 [Example 5a, 1-(4-methoxy-3-(4-methylpiperazin-1-yl)phenyl)pyrrolidin-2-one]	Antagonist	15000	30000		
COc1ccc(N2CCOC2=O)cc1N1CCN(C)CC1 [Example 13b, 3-(4-methoxy-3-(4-methylpiperazin-1-yl)phenyl)oxazolidin-2-one]	Antagonist				
COc1ccc(N2CCCC2=O)cc1N1CCC(N(C)C)CC1 [13e, 1-(3-(4-(dimethylamino)piperidin-1-yl)-4-methoxyphenyl)pyrrolidin-2-one, reference compound]	Antagonist				
COc1ccc(N2CCCC2=O)cc1N1CCCN(C)CC1 [Example 13c, 1-(4-methoxy-3-(4-methyl-1,4-diazepan-1-yl)phenyl)pyrrolidin-2-one]	Antagonist				
COC(=O)N1CCN(c2cc(N3CCN(C)CC3)c3occc3c2)S1(=O)=O [Example 49a, methyl 5-(7-(4-methylpiperazin-1-yl)benzofuran-5-yl)-1,1-dioxo-1,2,5-thiadiazolidine-2-carboxylate]	Antagonist	230	460	1800	
COc1ccc(N2CCCC2=O)cc1N1C[C@@H](C)N[C@@H](C)C1 [Example 13a, 1-(3-((3R,5S)-3,5-dimethylpiperazin-1-yl)-4-methoxyphenyl)pyrrolidin-2-one]	Antagonist				
